Laboratory results reported in ChEMBL document CHEMBL5230140, “A retrospective overview of PHGDH and its inhibitors for regulating cancer metabolism” (Eur J Med Chem, 2021).

Experiments:
[1] = biological target: T1, D-3-phosphoglycerate dehydrogenase (Homo sapiens, UniProt O43175); test: Inhibition of human PHGDH by fluorescence based analysis
T1 sequence (O43175 whole entry): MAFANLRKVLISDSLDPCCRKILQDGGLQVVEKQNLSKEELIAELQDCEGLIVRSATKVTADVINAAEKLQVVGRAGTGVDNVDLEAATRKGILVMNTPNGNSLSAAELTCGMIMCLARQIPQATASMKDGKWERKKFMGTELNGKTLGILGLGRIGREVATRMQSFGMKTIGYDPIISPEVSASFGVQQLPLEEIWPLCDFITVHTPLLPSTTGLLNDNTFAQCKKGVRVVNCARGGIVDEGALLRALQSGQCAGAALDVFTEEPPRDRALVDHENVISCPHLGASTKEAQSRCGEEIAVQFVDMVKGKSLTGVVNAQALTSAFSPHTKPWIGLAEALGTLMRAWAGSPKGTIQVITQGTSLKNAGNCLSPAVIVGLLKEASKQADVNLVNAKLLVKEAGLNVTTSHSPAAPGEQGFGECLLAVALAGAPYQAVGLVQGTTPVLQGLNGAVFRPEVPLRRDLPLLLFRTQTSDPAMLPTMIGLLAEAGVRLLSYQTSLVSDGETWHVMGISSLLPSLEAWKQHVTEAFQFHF

[2] = biological target: T1, D-3-phosphoglycerate dehydrogenase; test: Binding affinity to human PHGDH (3 to 314 residues) expressed in Escherichia coli Rosetta (DE3) by isothermal titration calorimetry
[3] = biological target: T1, D-3-phosphoglycerate dehydrogenase; test: Inhibition of human PHGDH expressed in Escherichia coli BL21 using 3-PG as substrate incubated for 30 mins by fluorescence based analysis
[4] = biological target: T1, D-3-phosphoglycerate dehydrogenase; test: Binding affinity to human PHGDH expressed in Escherichia coli BL21 incubated for 30 mins by MST assay
[5] = biological target: T1, D-3-phosphoglycerate dehydrogenase; test: Inhibition of human PHGDH using 3-PG as substrate incubated for 60 mins by fluorescence based analysis
[6] = biological target: T1, D-3-phosphoglycerate dehydrogenase; test: Binding affinity to PHGDH (unknown origin) by isothermal titration calorimetry
[7] = biological target: T1, D-3-phosphoglycerate dehydrogenase; test: Inhibition of human PHGDH using 3-PG as substrate by fluorescence based analysis

| Compound | IC50 [1] | other results |
| --- | --- | --- |
| S=C(SSC(=S)N(C1CCCCC1)C1CCCCC1)N(C1CCCCC1)C1CCCCC1 | 1.39 µM |  |
| COc1ccc(NC(C)=O)cc1Cl |  | Kd [2]: 1300 µM |
| C[C@H]1C(=O)OC([C@@H](O)[C@](C)(O)C2[C@@H](O)CC3C4C[C@H]5O[C@]56[C@@H](O)C=CC(=O)[C@]6(C)C4CC[C@@]32C)[C@@H]1C (some centres not stated) |  | IC50 [3]: 1.66 µM |
| COC(=O)[C@H](C)N1Cc2c(O)c(O)c(O)c(C)c2C1=O |  | Kd [4]: 15.2 µM; IC50 [3]: 9.76 µM |
| CC1CCC(C)N1C(=S)SSC(=S)N1C(C)CCC1C (configuration not stated) | 0.42 µM |  |
| O=C(c1cc(-c2ccccc2)n[nH]1)N1CCc2cc(S(=O)(=O)Nc3ncccn3)ccc21 |  | IC50 [5]: > 100 µM |
| Cc1cncc(Cc2cccc(CO)c2)n1 |  | Kd [2]: 16600 µM |
| Cc1cc(C)nc(NS(=O)(=O)c2ccc(NC(=O)c3cc(-c4ccccc4O)n[nH]3)cc2)n1 |  | IC50 [5]: < 50 µM |
| NC(=O)c1cc2ccccc2s1 |  | Kd [6]: 470 µM |
| CCN(CC)C(=S)SCSC(=S)N(CC)CC | 45.9 µM |  |
| CN(C(=S)SSC(=S)N(C)C1CCCCC1)C1CCCCC1 | 1.01 µM |  |
| O=C(c1ccc(Cl)cc1)N1CCOCC1 [(4-CHLOROPHENYL)(MORPHOLINO)METHANONE] |  | IC50 [7]: 10.4 µM |
| CCN(CC)C(=O)CSC(=S)N(CC)CC [(DIETHYLCARBAMOYL)METHYLENE DIETHYLCARBAMODITHIOATE] | > 1000 µM |  |
| CCN(CC)C(=S)CSC(=S)N(CC)CC [(DIETHYLTHIOCARBAMOYL)METHYLENE DIETHYLCARBAMODITHIOATE] | 36.4 µM |  |
| S=C(SSC(=S)N1CCCCC1)N1CCCCC1 [BIS(PIPERIDINYLTHIOCARBONYL)DISULFIDE] | 0.51 µM |  |

Further lines, with some results ahead:

| IC50 [1] | Compound | other results |
| --- | --- | --- |
| 0.21 µM | S=C(SSC(=S)N1CCOCC1)N1CCOCC1 |  |
| 0.36 µM | S=C(Nc1ccccc1)SSC(=S)Nc1ccccc1 |  |
| 67.3 µM | CN1CCN(C(=S)SCSC(=S)N2CCNCC2)CC1 |  |
| 0.41 µM | S=C(SSC(=S)N1CCN(c2ccccc2)CC1)N1CCN(c2ccccc2)CC1 |  |
| 0.57 µM | S=C(SSC(=S)N1CCN(C2CCCCC2)CC1)N1CCN(C2CCCCC2)CC1 |  |
| 22.5 µM | S=C(SSC(=S)N1CCN(Cc2ccccc2)CC1)N1CCN(Cc2ccccc2)CC1 |  |
| 0.42 µM | CN(C(=S)SSC(=S)N(C)c1ccccc1)c1ccccc1 |  |
| 0.17 µM | CN1CCN(C(=S)SSC(=S)N2CCN(C)CC2)CC1 |  |
| 0.34 µM | S=C(SSC(=S)N1CCSCC1)N1CCSCC1 |  |
| 0.58 µM | CC1CCN(C(=S)SSC(=S)N2CCC(C)CC2)CC1 |  |
| 0.38 µM | S=C(SSC(=S)N1CCc2ccccc2C1)N1CCc2ccccc2C1 |  |
